Test results from publication PMC6351562, “Structure, function, and inhibition of drug reactivating human gut microbial β-glucuronidases” (Scientific Reports, 2019).

Assays:
[1] = biological target: T1, Ruminococcus gnavus GUS (RgGUS) (Mediterraneibacter gnavus, UniProt A0A2N5PVZ8); type: biochemical; details: pNPG as substrate; optimal pH 6.5; apparent value estimated at low pNPG concentrations
T1 sequence (A0A2N5PVZ8 1-603): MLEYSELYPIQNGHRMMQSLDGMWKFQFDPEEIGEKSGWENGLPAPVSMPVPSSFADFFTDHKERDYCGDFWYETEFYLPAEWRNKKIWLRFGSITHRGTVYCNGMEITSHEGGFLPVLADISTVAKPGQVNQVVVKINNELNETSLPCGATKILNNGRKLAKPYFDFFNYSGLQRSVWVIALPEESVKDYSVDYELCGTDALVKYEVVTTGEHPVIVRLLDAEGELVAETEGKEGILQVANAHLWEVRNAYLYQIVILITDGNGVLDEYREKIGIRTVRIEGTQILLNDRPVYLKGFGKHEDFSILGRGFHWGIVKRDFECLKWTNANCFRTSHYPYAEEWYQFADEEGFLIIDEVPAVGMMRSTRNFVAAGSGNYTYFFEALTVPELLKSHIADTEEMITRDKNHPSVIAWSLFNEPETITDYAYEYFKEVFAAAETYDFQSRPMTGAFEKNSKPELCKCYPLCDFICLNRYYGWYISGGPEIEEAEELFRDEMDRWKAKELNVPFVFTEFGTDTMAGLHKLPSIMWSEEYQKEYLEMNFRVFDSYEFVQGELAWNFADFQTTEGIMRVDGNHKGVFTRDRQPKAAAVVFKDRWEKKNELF

EeGUS (−)EeLoop mutant = assay: pNPG processing by EeGUS (−)EeLoop mutant; details: deletion of residues M149 to A159 (Ee Extra Loop); Fig. S13c
[2] = biological target: T2, Lactobacillus rhamnosus GUS (LrGUS) (Lacticaseibacillus rhamnosus, UniProt A0A2A5L2J1); details: pNPG as substrate; optimal pH 4.5; 37 °C
T2 sequence (A0A2A5L2J1 1-603): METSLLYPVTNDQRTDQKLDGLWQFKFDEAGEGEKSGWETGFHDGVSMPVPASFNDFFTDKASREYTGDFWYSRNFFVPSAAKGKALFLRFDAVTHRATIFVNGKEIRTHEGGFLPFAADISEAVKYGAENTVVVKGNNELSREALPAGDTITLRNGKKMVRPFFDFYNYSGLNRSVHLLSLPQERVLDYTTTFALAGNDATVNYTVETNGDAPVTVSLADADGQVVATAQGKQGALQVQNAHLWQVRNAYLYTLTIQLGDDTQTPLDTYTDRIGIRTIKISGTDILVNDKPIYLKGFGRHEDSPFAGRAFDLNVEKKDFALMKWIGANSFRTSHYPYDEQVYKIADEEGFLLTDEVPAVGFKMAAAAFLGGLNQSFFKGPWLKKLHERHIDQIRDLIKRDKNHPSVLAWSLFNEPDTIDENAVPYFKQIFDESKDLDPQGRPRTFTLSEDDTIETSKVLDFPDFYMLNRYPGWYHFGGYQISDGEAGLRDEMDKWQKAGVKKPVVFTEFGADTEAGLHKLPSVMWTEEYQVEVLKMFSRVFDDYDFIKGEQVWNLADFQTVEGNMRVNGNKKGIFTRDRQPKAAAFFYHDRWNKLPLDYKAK

[3] = biological target: Clostridium perfringens GUS (CpGUS) (Clostridium perfringens, UniProt Q8VNV4); details: pH 6.5
[4] = biological target: T3, Faecalibacterium prausnitzii GUS (FpGUS) (Faecalibacterium duncaniae, UniProt C7H4D2); details: pNPG as substrate; optimal pH 6.0; 37 °C
T3 sequence (C7H4D2 1-608): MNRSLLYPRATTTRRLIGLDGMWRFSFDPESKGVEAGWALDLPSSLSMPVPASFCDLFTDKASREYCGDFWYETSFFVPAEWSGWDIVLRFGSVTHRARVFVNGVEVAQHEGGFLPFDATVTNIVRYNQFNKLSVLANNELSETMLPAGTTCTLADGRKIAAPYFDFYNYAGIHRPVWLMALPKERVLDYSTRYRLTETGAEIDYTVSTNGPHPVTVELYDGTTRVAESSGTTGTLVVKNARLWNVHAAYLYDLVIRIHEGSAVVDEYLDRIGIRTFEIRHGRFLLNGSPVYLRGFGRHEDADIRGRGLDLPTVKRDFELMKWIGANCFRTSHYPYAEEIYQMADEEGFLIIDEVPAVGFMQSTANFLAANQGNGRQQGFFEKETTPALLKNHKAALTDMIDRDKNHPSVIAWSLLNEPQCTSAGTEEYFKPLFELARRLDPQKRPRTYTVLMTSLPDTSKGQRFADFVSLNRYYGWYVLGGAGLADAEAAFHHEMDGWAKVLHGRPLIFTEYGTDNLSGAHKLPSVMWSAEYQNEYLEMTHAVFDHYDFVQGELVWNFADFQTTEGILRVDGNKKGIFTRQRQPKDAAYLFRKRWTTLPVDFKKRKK

E. coli GUS (EcGUS) = E. coli GUS (EcGUS) (Escherichia coli, UniProt P05804); details: pNPG as substrate; optimal pH 7.4; cited from earlier work
E. coli GUS (EcGUS), sequence (P05804 whole entry): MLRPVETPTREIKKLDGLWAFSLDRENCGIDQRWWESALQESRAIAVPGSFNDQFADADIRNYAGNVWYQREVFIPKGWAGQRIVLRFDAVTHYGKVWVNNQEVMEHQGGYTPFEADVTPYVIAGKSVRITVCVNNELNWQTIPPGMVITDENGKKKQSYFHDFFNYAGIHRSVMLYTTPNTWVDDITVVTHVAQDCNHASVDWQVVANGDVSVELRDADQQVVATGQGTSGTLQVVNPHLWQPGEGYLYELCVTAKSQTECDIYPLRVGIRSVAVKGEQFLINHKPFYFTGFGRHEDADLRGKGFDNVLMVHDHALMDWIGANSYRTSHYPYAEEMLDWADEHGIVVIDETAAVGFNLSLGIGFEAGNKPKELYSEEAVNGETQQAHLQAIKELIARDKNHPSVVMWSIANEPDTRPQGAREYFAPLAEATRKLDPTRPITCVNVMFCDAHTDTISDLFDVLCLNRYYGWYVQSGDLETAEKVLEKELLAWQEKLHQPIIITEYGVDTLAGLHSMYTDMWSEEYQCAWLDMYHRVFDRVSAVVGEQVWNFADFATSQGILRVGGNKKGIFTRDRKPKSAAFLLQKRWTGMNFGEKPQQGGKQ

BdGUS (−)CBM Loop mutant = assay: pNPG processing by BdGUS (−)CBM Loop mutant; details: deletion of CBM loop of BdGUS; Fig. S13a
[5] = test system: GUS activity in faecal extracts; assay: pNPG processing assay in faecal extracts of DCF-treated mice; details: single dose DCF 60 mg/kg intraperitoneal, faeces 12 hours after, 1 mM pNPG, pH 7.4

O=C(O)[C@H]1O[C@@H](Oc2ccc([N+](=O)[O-])cc2)[C@H](O)[C@@H](O)[C@@H]1O [pNPG, p-nitrophenol-β-D-glucuronide]
kcat [1]: 2.8 s⁻¹ | pNPG cleavage rate of mutant relative to WT (EeGUS (−)EeLoop mutant): 9% | kcat [2]: 10.0 s⁻¹ | kcat [3]: 57 s⁻¹ | kcat [4]: 58 s⁻¹ | Km (E. coli GUS (EcGUS)): 130 ± 10 µM | kcat (s^−1) (E. coli GUS (EcGUS)): 120 ± 10^a s^−1 | activity of mutant with pNPG (in words) (BdGUS (−)CBM Loop mutant): inactive

O=C(O)Cc1ccccc1Nc1c(Cl)cccc1Cl [DCF, diclofenac]
GUS activity (pNPG processing) in faecal extracts compared to pre-treatment levels [5]: increases GUS activity
